Measurements: patent US10253356B2, “Visualizing modified nucleotides and nucleic acid interactions in single cells” (SIGMA-ALDRICH CO. LLC, priority 2014, dated 2019)

What was measured:
SW480 cells = assay: Cytotoxic effects (cell shape) seen in drug-treated cells during ISH-PLA imaging; assay type: cell-based, human; details: 500 nM for 24 hours, a few drug treated cells
Protocol: Human cancer cells, i.e., DU145 (metastatic cancer; origin in prostrate migrated to brain) or SW480 (colon cancer), were grown in DMEM (Dulbecco's Modified Eagle's Medium) supplemented with 10% FBS and Pen/Strep antibiotics, and seeded ( 10^4 cells) per well of 8-well culture chambered coverglass plates (with silicone gasket). The cells were washed twice with HBSS, and then fixed with 4% paraformaldehyde solution (40 μL/well, 16% paraformaldehyde stock diluted 1:4 in 1×PBS) for 30 minutes at room temperature (RT). The crosslinking was stopped by adding 5 μL/well of 1.25M Glycine, and incubating at RT for 5 minutes. The cells were permeabilized by incubation for 1 hour at RT with permeabilization buffer (0.75% Tween 20 and 0.75% Triton X-100 in 1×PBS). The cells were rinsed with 1×PBS. For detection of 5-meC DNA, the cells were treated with 4 N HCL for 10 minutes at RT. The cells were washed with 1×PBS for 30 min at RT. The cells were treated for 1 minute with pre-warmed (37° C.) 0.25% Trypsin-EDTA solution, and the trypsin was inactivated by incubating for 2 minutes in pre-warmed (37° C.) quenching solution (i.e., DMEM supplemented with 10% FBS and 3 mg/mL BSA). The cells were washed with 1×PBS and blocked with an in situ hybridization blocking solution for 1 hour at RT.

[1] = test system: SEPTIN 9 promoter methylation in SW480 cells; assay: ISH-PLA visualization of SEPTIN 9 promoter methylation after drug treatment; assay type: cell-based, human; details: SW480 colon cancer cells, 500 nM for 24 hours, SEPTIN 9 probe set (ii), FIG. 5
Protocol: With this aim, a protocol was developed to perform in-situ hybridization followed by proximity ligation assay (PLA) (a.k.a., DUOLINK®, Sigma-Aldrich) and cell imaging to visualize DNA-methylation (5 meC) on the SEPTIN 9 promoter. […] The PLA assay was performed using anti-biotin and anti-5 meC antibodies, corresponding (+ and −) PLA probes, and Far Red detection reagents.
Human cancer cells, i.e., DU145 (metastatic cancer; origin in prostrate migrated to brain) or SW480 (colon cancer), were grown in DMEM (Dulbecco's Modified Eagle's Medium) supplemented with 10% FBS and Pen/Strep antibiotics, and seeded (˜10^4 cells) per well of 8-well culture chambered coverglass plates (with silicone gasket). The cells were washed twice with HBSS, and then fixed with 4% paraformaldehyde solution (40 μL/well, 16% paraformaldehyde stock diluted 1:4 in 1×PBS) for 30 minutes at room temperature (RT). The crosslinking was stopped by adding 5 μL/well of 1.25M Glycine, and incubating at RT for 5 minutes. The cells were permeabilized by incubation for 1 hour at RT with permeabilization buffer (0.75% Tween 20 and 0.75% Triton X-100 in 1×PBS). The cells were rinsed with 1×PBS. For detection of 5-meC DNA, the cells were treated with 4 N HCL for 10 minutes at RT. The cells were washed with 1×PBS for 30 min at RT. […]

SMILES: Nc1ncn([C@@H]2O[C@H](CO)[C@@H](O)[C@H]2O)c(=O)n1 [5-Azacytidine]
- cytotoxic effects (altered cellular shape) (SW480 cells): cytotoxic effects in terms of altered cellular shape
- SEPTIN 9 promoter methylation (nuclear ISH-PLA signal) [1]: Loss of this nuclear ISH-PLA signal
- SEPTIN 9 promoter methylation (nuclear ISH-PLA signal) ([1]; listed as 5-AzaC): diminished
